For orientation: IC50 means the point on the concentration scale where inhibition reaches its midpoint.

SMILES strings stand for the structures. A value given as a limit tells only on which side of the number the result lay.

For one test, the target named is T1, gamma-secretase (partially purified extract of IMR-32 cell membranes; substrate MBP-C125 Swe fusion protein, cleavage at the Aβ40 site) (Homo sapiens, UniProt P49768).
T1 construct: a partially purified extract of IMR-32 cell membranes as the gamma-secretase enzyme preparation; endogenous in cells; host or cells: IMR-32 cell membranes, partially purified extract
Briefly: Gamma-secretase APP enzyme assay (Example A). The test is classed as biochemical. Conditions: class symbols; assay described in Example A; read-out: γAPP IC50. From the text: The gamma-secretase APP enzyme assay was designed to measure the specific proteolytic cleavage of an APP substrate (MBP-C125 Swe fusion protein) at the Aβ40 site. […] This assay involved two steps beginning with the enzymatic reaction generating a cleavage product that was captured with an immobilized antibody specific for the neo-epitope Aβ40 site. The captured cleavage product was then detected in a sandwich ELISA assay with a biotinylated reporter antibody that is specific to Aβ(17-28). Streptavidin-linked alkaline phosphatase was then added that would generate a fluorescent signal proportional to the amount of cleavage product.
This warmed solution of BigCHAPS (N,N-Bis(3-D-gluconamidopropyl)cholamide) detergent was used to dissolve Brain Extract Type-V (lipid containing a minimum of 40% phosphatidylethanolamine) from Sigma (St. Louis, Mo.) to a concentration of 8 mg/ml. This solution containing BigCHAPS and lipid at 8 mg/ml is then diluted to 0.53 mg/ml lipid with a pre-warmed solution of Hepes and sodium chloride.
Gamma-secretase was then added to a 96-well micro-titre plate and then incubated with various concentrations of inhibitor for 30 minutes at 37° C. MBPC125 substrate was then added to initiate the reaction that would run for two hours at 37° C. The reaction was quenched with the addition of SDS to a final concentration of 0.1% and then 100 μl of the reaction mixture was transferred to a capture ELISA plate and incubated overnight at 4° C. Detection of the cleavage product was performed using a standard sandwich ELISA assay and quantified using a six point standard curve.
As for `O=C1c2n[nH]cc2C2c3ccccc3C1N2S(=O)(=O)c1ccc(C(F)(F)F)nc1` (centres unmarked) [compound 200], the IC50 was under 100 nM.
For `O=C1c2[nH]ncc2C2c3ccccc3C1N2S(=O)(=O)c1ccc(C(F)(F)F)cc1` (centres unmarked) [compound 173], the concentration for half-maximal inhibition (IC50) is under 100 nM.
In the case of `O=S(=O)(c1ccc(C(F)(F)F)cc1)N1C2c3cn[nH]c3C(F)C1c1cccc(F)c12` (single isomer, unassigned) [compound 263], the half-inhibitory concentration (IC50) is under 100 nM.
In the case of `O=S(=O)(c1ccc(C(F)(F)F)nc1)N1C2/C(=N/O)c3[nH]ncc3C1c1cccc(Cl)c12` (centres unmarked) [compound 265], the IC50 is under 100 nM.
`O=S(=O)(c1ccc(C(F)(F)F)cc1)N1C2Cc3[nH]ncc3C1Cc1ccccc12` (racemic) [compound 163]: the half-inhibitory concentration (IC50) was under 100 nM.
For `Cc1cc(F)cc2c1C1c3c[nH]nc3CC2N1S(=O)(=O)c1ccc(C(F)(F)F)nc1` (racemic) [compound 151], the IC50 is under 100 nM.
Consider `O=S(=O)(c1ccc(C(F)(F)F)cc1)N1C2Cc3[nH]ncc3C1C=C2c1ccc(F)cc1` (centres unmarked) [compound 60], for which the IC50 was 100 to 499 nM.
With `O=S(=O)(c1ccc(C(F)(F)F)nc1)N1C2Cc3[nH]ncc3C1c1nc(C3CC3)ccc12` (centres unmarked) [compound 256], the IC50 is over 1000 nM.
The same measure, in the same setting: the same measure for `O=S(=O)(c1ccc(C(F)(F)F)cc1)N1C2Cc3n[nH]cc3C1C(C1CC1)C2` (centres unmarked) [compound 45]: under 100 nM; for `O=S(=O)(c1ccc(C(F)(F)F)nc1)N1C2Cc3[nH]ncc3C1c1cccc(-c3ccc(F)cc3)c12` (racemic) [compound 266]: under 100 nM.
`COC(=O)c1cccc2c1C1Cc3[nH]ncc3C2N1S(=O)(=O)C1=CC=C(C(F)(F)F)NC1` (racemic) [compound 253]: the half-inhibitory concentration (IC50) was under 100 nM.
Same read-out and setting: as for `O=S(=O)(c1ccc(C(F)(F)F)cc1)N1C2Cc3[nH]ncc3C1C(c1ccc(F)cc1)C2` (centres unmarked) [compound 61], the figure is under 100 nM; as for `O=S(=O)(c1ccc(C(F)(F)F)nc1)N1C2Cc3n[nH]cc3C1c1c(F)ccc(F)c12` (centres unmarked) [compound 150], under 100 nM.
`O=S(=O)(c1ccc(C(F)(F)F)nc1)N1C2c3cn[nH]c3C(F)(F)C1c1c(F)cccc12` (centres unmarked) [compound 215]: the IC50 was under 100 nM.
Still for that read-out and setting: the same measure for `O=S(=O)(c1ccc(C(F)(F)F)cc1)N1C2c3c[nH]nc3C(F)(F)C1c1c(F)cccc12` (centres unmarked) [compound 121]: under 100 nM.
Turning to `O=C1c2n[nH]cc2C2c3cc(F)c(F)cc3C1N2S(=O)(=O)c1ccc(C(F)(F)F)nc1` (centres unmarked) [compound 148], the 50% inhibitory concentration (IC50) was under 100 nM.
On the same count and under the same terms, as for `O=S(=O)(c1ccc(C(F)(F)F)cc1)N1C2=Cc3c(-c4cccc(C(F)(F)F)c4)cccc3C1Cc1n[nH]cc12` (centres unmarked) [compound 177], the figure is under 100 nM; as for `O=S(=O)(c1ccc(C(F)(F)F)nc1)N1C2Cc3n[nH]cc3C1c1c(F)ccc(F)c12` (centres unmarked) [compound 149], 100 to 499 nM.
Still for that read-out and setting: the same measure for `O=S(=O)(c1ccc(C(F)(F)F)nc1)N1C2Cc3cccc(Br)c3C1c1cn[nH]c1C2` (centres unmarked) [compound 218]: under 100 nM; for `O=S(=O)(c1ccc(C(F)(F)F)cc1)N1C2Cc3[nH]ncc3C1c1ccc3ccccc3c12` (centres unmarked) [compound 169]: 100 to 499 nM; for `O=S(=O)(c1ccc(C(F)(F)F)nc1)N1C2Cc3[nH]ncc3C1c1cc(Cl)ccc12` (centres unmarked) [compound 221]: 100 to 499 nM.
Same read-out and setting: as for `O=S(=O)(c1ccc(C(F)(F)F)nc1)N1C2Cc3[nH]ncc3C1c1cc(C3CC3)ccc12` (single isomer, unassigned) [compound 247], the figure is under 100 nM; as for `O=S(=O)(c1ccc(Cl)cc1)N1C2Cc3[nH]ncc3C1CC(c1c[nH]nn1)C2` (racemic) [compound 93], under 100 nM; as for `COC(=O)c1ccc2c(c1)C1c3cn[nH]c3CC2N1S(=O)(=O)c1ccc(C(F)(F)F)nc1` (centres unmarked) [compound 205], 100 to 499 nM.

The test is the same for the next values; noted with them: γAPP IC50 (nM), class symbols; assay described in Example A.
For `O=S(=O)(c1ccc(C(F)(F)F)nc1)N1C2Cc3n[nH]cc3C1c1ncsc12` (centres unmarked) [compound 187], the IC50 lay within 100 to 499 nM.
Still for that read-out and setting: as for `O=S(=O)(c1ccc(C(F)(F)F)nc1)N1C2Cc3[nH]ncc3C1c1ncc(F)cc12` (single isomer, unassigned) [compound 260], the figure is under 100 nM.

(Values after patent publication US8283358B2, “N-sulfonamido polycyclic pyrazolyl compounds” (Elan Pharmaceuticals, Inc., priority 2008, dated 2012).)
